Our source for the IC50 values is patent US9745282B2, “Indoline compounds as aldosterone synthase inhibitors” (Merck Sharp & Dohme Corp., priority 2012, dated 2017).

Assay type in all cases: cell-based
The target in experiment [1] is T1, human CYP11B1 (Homo sapiens (Human), UniProt P15538). The experiment is described as follows: V79-Human-CYP11B1 cell assay. Conditions: V79 cells expressing human CYP11B1; 250 nM 11-deoxycortisol; cortisol by HTRF. As to the method: (§1) V79 cell lines stably expressing the either the human CYP11B2 or the human CYP11B1 enzyme were generated using a standard transfection protocol. V79 cells were transfected with plasmids pTriEx3-Hygro-hCyp11B2 or pTriEx3-Hygro-hCyp11B1 using Lipofectamine2000 reagent. V79 cells that stably express the human CYP11B2 or human CYP11B1 enzyme were selected for and maintained in DMEM supplemented with 10% FBS and 400 μg/mL hygromycin for 2 weeks. Single cell clones were generated by infinite dilution in DMEM supplemented with 10% FBS and 400 μg/mL hygromycin until single colonies were obtained. Clones V79-hCYP11B2-CLE9 and V79-hCYP11B1-CL8C7, were determined to produce the most aldosterone and cortisol, respectively, and were selected for inhibitor screening. For testing of inhibitors, cells were harvested at 80% confluency with 0.05% Trypsan-EDTA, washed once in PBS, and reconstituted in DMEM+0.1% BSA media at a cell concentration of 600,000 cells/mL for the CYP11B2 assay and 280,000 cells/mL for the CYP11B1 assay. 25 μL of cells were added to a 384 well tissue culture treated plate and mixed with 0.3 μL of inhibitor or DMSO (1% final DMSO concentration) for 1 hour at 37° C., 5% CO2. After pre-incubation with inhibitor, the reaction was initiated by adding 5 μL of substrate (final concentration of 125 nM 11-deoxycorticosterone for the CYP11B2 assay or 250 nM 11-deoxycortisol for the CYP11B1 assay). The reaction was carried out for 3 hours at 37° C., 5% CO2 and was stopped by harvesting the supernatants. The amount of product in the supernatant (aldosterone for CYP11B2 assay and cortisol for the CYP11B1 assay) was measured using HTRF-based assay kit (Aldosterone HTRF-CisBio#64ALDPEB, Cortisol HTRF-CisBio #63IDC002-CORT). IC50s for the inhibitor were determined by plotting the amount of product formed against the concentration of inhibitor using sigmoidal dose-response curve (variable slope) fit in GraphPad.
For orientation: In TR-FRET formats the signal depends on donor and acceptor labels being close together.

The target in experiment [2] is T2, human CYP11B2 (Homo sapiens (Human), UniProt P19099). Kind of experiment: V79-Human-CYP11B2 cell assay. Conditions: V79 cells expressing human CYP11B2; 125 nM 11-deoxycorticosterone; aldosterone by HTRF. As to the method:
as §1, with “Clones V79-hCYP11B2-CLE9 and V79-hCYP11B1-CL8C7, were determined to produce the most aldosterone and cortisol, respectively, and were selected for inhibitor screening.” left out

Experiment [3] addresses T2, human CYP11B2. Kind of experiment: V79-Human-CYP11B2 cell assay, modified protocol. Conditions: V79 cells expressing human CYP11B2. As to the method: as §1, with “Clones V79-hCYP11B2-CLE9 and V79-hCYP11B1-CL8C7, were determined to produce the most aldosterone and cortisol, respectively, and were selected for inhibitor screening.” left out
(§2) For the CYP11B2 assay, cells were reconstituted in DMEM+0.1% BSA media at a cell concentration of 600,000 cells/mL and for the CYP11B1 assay cells were reconstituted in DMEM+0.1% BSA media at a cell concentration of 280,000 cells/mL. 25 μl of cells were added to a 384 well tissue culture treated plate and mixed with […] or DMSO (1% final DMSO concentration) for 1 hour at 37° C., 5% CO2.

The target of experiment [4] is T1, human CYP11B1. Kind of experiment: V79-Human-CYP11B1 cell assay, modified protocol. Conditions: V79 cells expressing human CYP11B1. On the procedure:
as §1, with “Clones V79-hCYP11B2-CLE9 and V79-hCYP11B1-CL8C7, were determined to produce the most aldosterone and cortisol, respectively, and were selected for inhibitor screening.” left out
as §2

T2 sequence (P19099 25-503): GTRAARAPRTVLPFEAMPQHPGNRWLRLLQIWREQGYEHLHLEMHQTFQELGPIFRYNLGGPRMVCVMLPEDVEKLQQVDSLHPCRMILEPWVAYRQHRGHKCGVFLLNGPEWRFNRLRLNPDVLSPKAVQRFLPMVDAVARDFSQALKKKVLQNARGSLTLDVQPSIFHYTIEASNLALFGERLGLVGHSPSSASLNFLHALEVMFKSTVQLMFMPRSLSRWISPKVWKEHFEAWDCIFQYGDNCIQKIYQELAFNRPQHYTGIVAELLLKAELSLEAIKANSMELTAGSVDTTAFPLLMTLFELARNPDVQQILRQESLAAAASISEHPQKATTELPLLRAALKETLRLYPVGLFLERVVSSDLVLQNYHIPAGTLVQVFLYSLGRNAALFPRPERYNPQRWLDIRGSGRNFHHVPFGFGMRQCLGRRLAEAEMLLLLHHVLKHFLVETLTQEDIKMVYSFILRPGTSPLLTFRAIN
T1 sequence (P15538 25-503): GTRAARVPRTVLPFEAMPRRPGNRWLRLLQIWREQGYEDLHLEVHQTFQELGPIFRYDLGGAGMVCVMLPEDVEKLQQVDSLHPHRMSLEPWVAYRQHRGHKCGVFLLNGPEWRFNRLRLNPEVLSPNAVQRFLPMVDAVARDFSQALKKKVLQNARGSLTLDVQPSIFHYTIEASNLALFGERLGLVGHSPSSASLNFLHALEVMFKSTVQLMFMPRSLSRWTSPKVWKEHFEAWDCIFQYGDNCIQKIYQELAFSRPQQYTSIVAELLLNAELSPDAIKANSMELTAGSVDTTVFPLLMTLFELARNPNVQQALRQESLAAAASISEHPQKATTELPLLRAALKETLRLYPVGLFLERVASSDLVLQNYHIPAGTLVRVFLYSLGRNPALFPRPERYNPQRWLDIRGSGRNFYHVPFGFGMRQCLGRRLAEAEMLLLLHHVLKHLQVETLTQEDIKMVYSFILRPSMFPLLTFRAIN

Turning to `CC(=O)N1CCc2cc(-c3cncc(F)c3)ccc21` [Example 1, 1-(5-(5-fluoropyridin-3-yl)indolin-1-yl)ethanone], the IC50 – broadly, the point on the concentration scale where inhibition reaches its midpoint – was above 10000 nM against human CYP11B1 [1] and 110 nM at human CYP11B2 [2]. Take `CC(=O)N1CCc2cc(-c3cncc(F)c3)cc(Cl)c21` [Example 2, 1-(7-chloro-5-(5-fluoropyridine-3-yl)indolin-1-yl)ethanone]: the results for the 50% inhibitory concentration (IC50) at human CYP11B1 [1] and on human CYP11B2 [2] were 7900 nM and 12 nM, respectively. `COc1cncc(-c2cc(Cl)c3c(c2)CCN3C(C)=O)c1` [Example 3, 1-(7-chloro-5-(5-methoxypyridin-3-yl)indolin-1-yl)ethanone]: the IC50 against human CYP11B1 [1] is 130 nM; on human CYP11B2 [2], 4.1 nM. The corresponding values for `CC(=O)N1CCc2cc(-c3cncc([C@](C)(O)C(F)(F)F)c3)cc(Cl)c21` [Example 4, (S)-1-(7-chloro-5-(5-(1,1,1,-trifluoro-2-hydroxypropan-2-yl)pydine-3-yl)indolin-1-yl)ethanone] are 26 nM and 1.2 nM.

Regarding `CC(=O)N1CCc2cc(-c3cncc([C@@](C)(O)C(F)(F)F)c3)cc(Cl)c21` [Example 5, (R)-1-(7-chloro-5-(5-(1,1,1,-trifluoro-2hydroxypropan-2-yl)pyridine-3-yl)indolin-1-yl)ethanone], the figures for the IC50 against human CYP11B1 [1] and against human CYP11B2 [2] were 53 nM and 2.4 nM, respectively.

As for `CC(=O)N1CCc2cc(-c3cncc(C(F)(F)F)c3)cc(Cl)c21` [Example 6, 1-(7-chloro-5-(5-(triuoromethyl)pyridine-3-yl)indolin-1-yl)ethanone], the figures for the concentration for half-maximal inhibition (IC50) at human CYP11B1 [1] and at human CYP11B2 [2] were 400 nM and 7.5 nM, respectively.

As to `CC(=O)N1CCc2cc(-c3cnccc3C(F)(F)F)cc(Cl)c21` [Example 7, 1-(7-chloro-5-(4-(trifluoromethyl)pyridine-3-yl)indolin-1-yl)ethanone], the IC50 against human CYP11B1 [1] was 610 nM; on human CYP11B2 [2], 5 nM. In the case of `CCc1c(F)cncc1-c1cc(Cl)c2c(c1)CCN2C(C)=O` [Example 9, 1-(7-chloro-5-(4-ethyl-5-fluoropyridin-3-yl)indolin-1-yl)ethanone], the figures for the IC50 against human CYP11B1 [1] and on human CYP11B2 [2] were 400 nM and 2.3 nM, respectively. Regarding `CC(=O)N1CCc2cc(-c3cncc(C#N)c3C)cc(Cl)c21` [Example 10, 5-(1-acetyl-7-chloroindolin-5-yl) 4-methylnicotinotrile], the IC50 against human CYP11B1 [1] was found to be 1600 nM; on human CYP11B2 [2], 35 nM. The like results for `CC(=O)N1CCc2cc(-c3cncc4ccccc34)cc(Cl)c21` [Example 11, 1-(7-chloro-5-(isoquinolin-4-yl)indolin-1-yl)ethanone] were, in that order, 60 nM and 0.7 nM. With `CC(=O)N1CCc2cc(-c3cccnc3)cc(F)c21` [Example 12, 1-(7-fluoro-5-(pyridine-3-yl)indolin-1-yl) ethanone], the values for the IC50 against human CYP11B1 [1] and against human CYP11B2 [2] were 900 nM and 4.9 nM, respectively.

For `CC(=O)N1CCc2cc(-c3cncc([C@](C)(O)C(F)(F)F)c3)cc(F)c21` [Example 13, (S)-1-(7-fluoro-5-(5-(1,1,1-trifluoro-2-hydroxypropan-2-yl)pyridin-3-yl)indolin-1-yl)ethanone], the IC50 was determined as 23 nM against human CYP11B1 [1] and 2.1 nM against human CYP11B2 [2]. The like results for `CC(=O)N1CCc2cc(-c3cncc([C@@](C)(O)C(F)(F)F)c3)cc(F)c21` [Example 14, (R)-1-(7-fluoro-5-(5-(1,1,1-trifluoro-2-hydroxypropan-2-yl)pyridin-3-yl)indolin-1-l)ethanone] were, in that order, 13 nM and 0.8 nM. For `CC(=O)N1CCc2cc(-c3cncc(C#N)c3)cc(F)c21` [Example 16, 5-(1-acetyl-7-fluoroindolin-5-yl)nicotinonitrile], the IC50 at human CYP11B1 [1] is above 10000 nM; on human CYP11B2 [2] it was 97 nM. The like results for `CC(=O)N1CCc2cc(-c3cncc(C#N)c3C)cc(F)c21` [Example 17, 5-(1-acetyl-7-fluoroindolin-5-yl)-4-methylnicotino nitrile] were, in that order, 540 nM and 12 nM. The like results for `CC(=O)N1CCc2cc(-c3cncc(F)c3)cc(F)c21` [Example 18, 1-(7-fluoro-5-(5-fluoropyridine-3-yl)indolin-1-yl)-ethanone] were, in that order, 1100 nM and 15 nM. On to `CC(=O)N1CCc2cc(-c3cncc(F)c3C)cc(F)c21` [Example 19, 1-(7-fluoro-5-(5-fluoro-4-methylpyridine-3-yl)indolin-1-yl)-ethanone], for which the IC50 was 100 nM on human CYP11B1 [1] and 1 nM against human CYP11B2 [2]. The like results for `CCc1c(F)cncc1-c1cc(F)c2c(c1)CCN2C(C)=O` [Example 20, 1-(5-(4-ethyl-5-fluoropyridine-3-yl)-7-fluoroindolin-1-yl)ethanone] were, in that order, 500 nM and 1.6 nM. In the case of `CCC(=O)N1CCc2cc(-c3cccnc3)ccc21` [Example 21, 1-propanoyl-5-pyridin-3-yl-2,3-dihydro-1H-indole], the half-inhibitory concentration (IC50) against human CYP11B2 [3] came to 228 nM; against human CYP11B1 [4], 4.74 µM. The like results for `COc1ccc(C(=O)N2CCc3cc(-c4cccnc4)ccc32)cc1` [Example 25, 1-[(4-methoxy-phenyl)carbonyl]-5-pyridin-3-yl-2,3-dihydro-1H-indole] were, in that order, 1430 nM and above 5 µM. `CC(=O)N1CCc2cc(-c3cccnc3)cc(Cl)c21` [Example 43, 1-(7-chloro-5-(pyridin-3-yl)indolin-1-yl)ethanone]: the IC50 amounted to 570 nM against human CYP11B1 [1] and 7.4 nM at human CYP11B2 [2]. With `CC(=O)N1CCc2cc(-c3cccnc3)c(Cl)cc21` [Example 44, 1-(6-chloro-5-(pyridin-3-yl)indoline-1-yl)ethanone], the 50% inhibitory concentration (IC50) against human CYP11B1 [1] was found to be 470 nM; at human CYP11B2 [2] it was 640 nM. The like results for `CC(=O)N1CCc2cc(-c3cncc(F)c3)c(Cl)cc21` [Example 45, 1-(6-chloro-5-(5-fluoropyridine-3-yl)indolin-1-yl)ethanone] were, in that order, 760 nM and 810 nM.

In the case of `CCc1c(F)cncc1-c1cc2c(cc1Cl)N(C(C)=O)CC2` [Example 46, 1-(6-chloro-5-(4-ethyl-5-fluoropyridine-3-yl)indolin-1-yl)ethanone], the IC50 against human CYP11B1 [1] is 780 nM; against human CYP11B2 [2], 620 nM. Regarding `CC(=O)N1CCc2cc(-c3cccnc3)c(F)cc21` [Example 47, 1-(6-fluoro-5-(pyridin-3-yl)indon-1-yl)ethanone], the results for the IC50 at human CYP11B1 [1] and on human CYP11B2 [2] were 380 nM and 180 nM, respectively. For `CC(=O)N1CCc2cc(-c3cncc(F)c3)c(F)cc21` [Example 48, 1-(6-fluoro-5-(5-fluoropyridin-3-yl)indolin-1-yl)ethanone], the IC50 against human CYP11B1 [1] is above 10000 nM. Consider `CCc1c(F)cncc1-c1cc2c(cc1F)N(C(C)=O)CC2` [Example 49, 1-(5-(4-ethyl-5-fluoropyridin-3-yl)-6-fluoroindolin-1-yl)ethanone], for which the results for the IC50 against human CYP11B1 [1] and at human CYP11B2 [2] were 4000 nM and 170 nM, respectively.
